Measurements: US9440982B2 (Eolas Therapeutics, Inc., priority 2012, dated 2016)
Where two headings read alike, the source gives them in different places.

Key:
Hcrt-R1 WT and KO mice = test: Nicotine self-administration assay (mice), with food self-administration; assay type: in vivo; details: for food self-administration (SA): KO and WT mice, systemic administration 30 min prior to the SA session; for nicotine SA: doses 0, 5 and 10 mg/kg
Text: To generate Hcrt-R1^+/+ and […] mice, breeding pairs of male and female Hcrt-R1^+/− mice that were backcrossed >10 generations on a C57BL/6 background were obtained from Jackson Laboratory (Bar Harbor, Me.). For all experiments, mice weighing 25-35 g were housed in groups of 2-3 per cage, in a temperature-controlled vivarium under a reversed 12-h light/dark cycle (lights off at 8 am). Food and water were provided ad libitum until behavioral training commenced. During training, mice were food-restricted to maintain ˜85-90% of their free-feeding body weight. Behavioral testing occurred during the dark portion of the light/dark cycle between the hours of 9 am-1 pm, during the early portion of the dark phase of the cycle. All procedures were conducted in strict adherence with the National Institutes of Health Guide for the Care and Use of Laboratory Animals and were approved by the Institutional Animal Care and Use Committee of The Scripps Research Institute.
Mice were anesthetized by inhalation of 1-3% isoflurane in oxygen and silastic catheters were inserted into the jugular veins. Briefly, the catheters consisted of a 6 cm length of silastic tubing fitted to a guide cannula (Plastics One, Wallingford, Conn.), bent at a curved right angle and encased in dental acrylic. The catheter tubing was passed subcutaneously from each animal's back to the right jugular vein, and 1 cm length of the catheter tip was inserted into the vein. After surgery, catheters were flushed daily with 0.1 ml of a heparinized (30 USP units/ml) sterile saline solution. Following 7 d of surgical recovery, mice were mildly food restricted to 85-90% of their free-feeding body weight and trained to press a lever in an operant chamber (Med Associates, St. Albans, Vt.) for food pellets (20 mg; TestDiet, Richmond, Ind.) under a fixed-ratio 5, time out 20-s (FR5TO20 s) schedule of reinforcement […]. Once stable responding was achieved (>25 pellets per session), mice were permitted to acquire IV nicotine self-administration by autoshaping during 1-h daily sessions, 7 days per week. Nicotine was delivered through the tubing into the IV catheter by a Razel syringe pump (Med Associates). […] After 1 week, the nicotine dose was increased to 0.1 mg/kg/inf for the remainder of the experiment, including subsequent training and test sessions. […] During the TO period, responding on the lever was recorded but without scheduled consequence. […]
For Hcrt-R1 re-expression studies, the human Hcrt-R1 gene was cloned into the pCDF1 lentivirus expression vector containing copGFP (GFP cloned from copepod Pontellina plumata) from Systems Biosciences. […] Viral supernatant titres were determined using the Lentivector Rapid Titer Kit from System Biosciences, according to the manufacturer's instructions. […]

CYP3A4 = biological target: T1, CYP3A4 (Homo sapiens, UniProt P08684); test: Cytochrome P450 inhibition assay (midazolam hydroxylation); assay type: in vitro ADME; details: human, human liver microsomes, probe midazolam (hydroxylation to 1′-hydroxymidazolam), 10 μM test compound, midazolam at approximately its Km
T1 construct: pre-incubated with human liver microsomes and NADPH; from tissue; host or cells: human liver microsomes
Method in brief: (§1)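 Percent inhibition of midazolam 1′-hydroxylation by 10 μM compound was measured, midazolam dosed at about Km. Time-dependent inhibition was probed by a 30 min preincubation of compound with human liver microsomes and NADPH ahead of substrate, compared against samples without preincubation.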

rats = test: Nicotine self-administration assay (rats), with food responding; assay type: in vivo; details: several doses
Text: For all experiments, rats weighing 250-300 g were housed in groups of […] per cage, in a temperature-controlled vivarium under a reversed 12-h light/dark cycle (lights off at 8 am). Food and water were provided ad libitum until behavioral training commences. During training, rats were food-restricted to maintain ˜85-90% of their free-feeding body weight. Behavioral testing occurred during the dark portion of the light/dark cycle between the hours of 9 am-1 pm, during the early portion of the dark phase of the cycle. All procedures were conducted in strict adherence with the National Institutes of Health Guide for the Care and Use of Laboratory Animals and are approved by the Institutional Animal Care and Use Committee of The Scripps Research Institute.
Rats were anesthetized by inhalation of 1-3% isoflurane in oxygen and silastic catheters were inserted into the jugular veins. Briefly, the catheters consist of a 14 cm length of silastic tubing fitted to a guide cannula (Plastics One, Wallingford, Conn.), bent at a curved right angle and encased in dental acrylic. The catheter tubing was passed subcutaneously from each animal's back to the right jugular vein, and 1 cm length of the catheter tip was inserted into the vein. […] During the TO period, responding on the lever was recorded but without scheduled consequence. […]

[1] = biological target: T2, cytochrome P450 3A4 isoform (Homo sapiens, UniProt P08684); test: Cytochrome P450 inhibition assay (midazolam hydroxylation); assay type: in vitro ADME; details: 10 μM test compound; midazolam at approximately its Km; human liver microsomes
T2 construct: pre-incubated with human liver microsomes and NADPH; from tissue; host or cells: human liver microsomes
Method in brief: as §1

OX1 = biological target: T3, OX1 (Homo sapiens, UniProt O43613); test: Orexin receptor cell-based functional assay, [Ca2+]i by FLIPR, CHO-OX1 cells
T3 construct: expressed in transfected cells; host or cells: CHO (CHO-OX1, kept under selection antibiotic)
T3 sequence (O43613 1-425): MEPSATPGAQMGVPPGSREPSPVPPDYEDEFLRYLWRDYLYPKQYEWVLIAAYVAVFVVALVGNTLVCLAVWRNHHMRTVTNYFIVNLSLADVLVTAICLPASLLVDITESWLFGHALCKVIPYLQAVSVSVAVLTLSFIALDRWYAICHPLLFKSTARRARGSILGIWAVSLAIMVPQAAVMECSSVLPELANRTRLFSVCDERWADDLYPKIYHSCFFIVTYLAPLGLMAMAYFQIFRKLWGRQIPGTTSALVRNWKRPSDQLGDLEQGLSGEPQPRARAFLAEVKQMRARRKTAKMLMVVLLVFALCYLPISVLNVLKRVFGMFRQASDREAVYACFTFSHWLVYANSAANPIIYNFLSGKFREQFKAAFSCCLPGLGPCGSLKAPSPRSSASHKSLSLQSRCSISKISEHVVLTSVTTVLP
Method in brief: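 Antagonist mode FLIPR calcium read in CHO-OX1 and CHO-OX2 lines. Test compounds, dosed 0.1 nM-10 μM, preincubated 30 min after 37° C dye loading with 2.5 mM probenecid (calcium4 for 30 min or calcium6 for 2 h).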

[2] = CHO-OX1 cells, [Ca2+]i by FLIPR, antagonist dose-range 0.1 nM-10 μM, EC90 of OXA, read-out: OX1

T2 sequence (P08684 whole entry, canonical isoform): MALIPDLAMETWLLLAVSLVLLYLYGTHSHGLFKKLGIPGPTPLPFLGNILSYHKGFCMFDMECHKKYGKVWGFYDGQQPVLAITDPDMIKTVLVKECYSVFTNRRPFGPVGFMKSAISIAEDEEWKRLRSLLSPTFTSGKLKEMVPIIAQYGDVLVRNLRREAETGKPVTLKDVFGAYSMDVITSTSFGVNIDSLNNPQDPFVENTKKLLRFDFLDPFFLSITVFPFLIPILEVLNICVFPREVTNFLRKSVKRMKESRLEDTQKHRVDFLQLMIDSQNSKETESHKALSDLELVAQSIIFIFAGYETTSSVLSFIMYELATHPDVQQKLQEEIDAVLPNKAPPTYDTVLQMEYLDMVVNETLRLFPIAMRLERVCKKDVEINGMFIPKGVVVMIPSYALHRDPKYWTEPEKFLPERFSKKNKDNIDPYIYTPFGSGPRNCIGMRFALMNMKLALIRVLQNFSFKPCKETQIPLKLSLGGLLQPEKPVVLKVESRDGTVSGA
T1 sequence (P08684 whole entry): as the sequence (P08684 whole entry, canonical isoform) above

`CC1(C)OC[C@H](NC(=O)Nc2ccc(Br)cc2Br)[C@H](c2ccccc2)O1` [JNJ10397049] was tested, and the “food self-administration (SA)” value (Hcrt-R1 WT and KO mice) was “no effect”, the “nicotine SA” value (Hcrt-R1 WT and KO mice; KO mice) was “marginal decrease” and the “nicotine SA” value (Hcrt-R1 WT and KO mice; WT mice) was “no effect”.

In the case of `Cc1ccc(-c2cnn(C)c2)c(C(=O)N2CCC[C@@H](C)[C@H]2CNc2ccc(C(F)(F)F)cn2)c1` [Example A1, ((2S,3R)-3-Methyl-2-(((5-(trifluoromethyl)pyridin-2-yl)amino)methyl)piperidin-1-yl)(5-methyl-2-(1-methyl-1H-pyrazol-4-yl)phenyl)methanone], the inhibition at 10 µM (CYP3A4) is reported as 98%, the food intake (rats) is reported as “does not have a significant effect” and the nicotine self-administration (rats) is reported as “dose-dependent reduction”.

`C[C@@H]1CCCN(C(=O)c2cc(F)c(F)cc2-c2ncccn2)[C@@H]1CNc1ccc(C(F)(F)F)cn1` [Example A242, (4,5-Difluoro-2-(pyrimidin-2-yl)phenyl)((2S,3R)-3-methyl-2-(((5-(trifluoromethyl)pyridin-2-yl)amino)methyl)piperidin-1-yl)methanone] was tested, and the “% CYP3A4 Inhibition” value [1] was 87% and the IC50 (OX1; [2]) was 24 nM.

For `Cc1nc(C(=O)N2CCC[C@@H](C)[C@H]2CNc2ccc(C(F)(F)F)cn2)c(-c2ccc(F)cc2)s1` (racemic) [Example 11, rac-cis-(5-(4-Fluorophenyl)-2-methylthiazol-4-yl)(3-methyl-2-(((5-(trifluoromethyl)pyridin-2-yl)amino)methyl)piperidin-1-yl)methanone], the IC50 (OX1; Table 2, CHO-OX1 cells, EC90 of OXA, read-out: IC50 Bioactivity OX1) was 8 nM, the IC50 (OX1; Table 6, racemate vs enantiomers, read-out: OX1 IC50) was 8 nM and the “food self-administration (SA)” value (Hcrt-R1 WT and KO mice) was “no effect”.

In the case of `C[C@@H]1CCCN(C(=O)c2cccc(F)c2-c2ncccn2)[C@@H]1CNc1ccc(Cl)cn1` [Example A232, ((2S,3R)-2-(((5-chloropyridin-2-yl)amino)methyl)-3-methylpiperidin-1-yl)(3-fluoro-2-(pyrimidin-2-yl)phenyl)methanone], the “% CYP3A4 Inhibition” value [1] is reported as 65% and the IC50 (OX1; [2]) is reported as 8 nM.
